Results from patent publication US20230131899A1, “INHIBITORS OF MICROBIALLY INDUCED AMYLOID” (Axial Therapeutics, Inc., priority 2020, published 2023).
Like-named read-outs stand apart in the source and are kept apart here.

Assays:
human α-synuclein = molecular target: T1, human α-synuclein (Homo sapiens, UniProt P37840); test: Cell-free Thioflavin T assay of α-synuclein aggregation (αSyn ThT Assay); assay type: biochemical; settings: αSyn 50 μM, compounds at 100 μM
T1 construct: the full-length gene for untagged human α-synuclein was inserted; made in house; host or cells: E. coli BL21(DE3), plasmid derived from pT7 or pET11a
In short: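 Inhibition is reported as 100% minus background-corrected ThT signal relative to vehicle wells, taken at 36, 47, 48 or 72 h or the last read. Reactions held 50 μM recombinant α-synuclein, 20-100 μM compound, 20-40 μM ThT and 1% DMSO. Incubation was at 37° C., shaken, with a glass bead.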

[1] = test system: CsgA expression in WT E. coli; test: qRT-PCR of CsgA expression in WT E. coli; assay type: cell-based; settings: previously observed
[2] = test system: CsgA expression in E. coli MC4100; test: Monocolonized Mouse Model: csgA expression in fecal pellets by qRT-PCR; settings: 30 mg/kg, day five of treatment, relative to mice treated with vehicle alone (FIGS. 4A-B)
[3] = mean % inhibition of αSyn aggregation relative to DMSO control, read-out: αSyn ThT Assay % Inhibition
[4] = class symbol, read-out: αSyn ThT Assay % Inhibition (activity range)

| SMILES | inhibition at 100 µM (human α-synuclein; [3]) [%] | inhibition at 100 µM (human α-synuclein; [4]) [%] | CsgA expression via qRT-PCR [1] | csgA expression in E. coli MC4100 monocolonized mice [2] |
| --- | --- | --- | --- | --- |
| Nc1c(Cc2cccc3ccccc23)c(-c2cccc(C(F)(F)F)c2)c2n(c1=O)C(C(=O)O)CS2 (racemic) [Compound 020, 6-amino-7-(naphthalen-1-ylmethyl)-5-oxo-8-(3-(trifluoromethyl)phenyl)-2,3-dihydro-5H-thiazolo[3,2-a]pyridine-3-carboxylic acid] | 53 | 31 to 60 | inhibit CsgA expression | – |
| CCCN1CC(C(=O)O)n2c(c(-c3cccc(C(F)(F)F)c3)c(Cc3cccc4ccccc34)cc2=O)S1(=O)=O (racemic) [Compound 016, 8-(naphthalen-1-ylmethyl)-6-oxo-2-propyl-9-(3-(trifluoromethyl)phenyl)-3,4-dihydro-2H,6H-pyrido[1,2-e][1,2,5]thiadiazine-4-carboxylic acid 1,1-dioxide] | 68 | > 60 | – | reduction of csgA expression |
| CCc1c(Cc2cccc3ccccc23)c(-c2cccc(C(F)(F)F)c2)c2n(c1=O)C(C(=O)O)CN(C1CCCCC1)S2(=O)=O (centres unmarked) [Compound 116, 2-cyclohexyl-7-ethyl-8-(naphthalen-1-ylmethyl)-6-oxo-9-(3-(trifluoromethyl)phenyl)-3,4-dihydro-2H,6H-pyrido[1,2-e][1,2,5]thiadiazine-4-carboxylic acid 1,1-dioxide] | 47 | 31 to 60 | – | – |
| O=C(O)CN1CC(C(=O)O)n2c(c(-c3cccc(C(F)(F)F)c3)c(Cc3cccc4ccccc34)cc2=O)S1(=O)=O (centres unmarked) [Compound 018, 2-(carboxymethyl)-8-(naphthalen-1-ylmethyl)-6-oxo-9-(3-(trifluoromethyl)phenyl)-3,4-dihydro-2H,6H-pyrido[1,2-e][1,2,5]thiadiazine-4-carboxylic acid 1,1-dioxide] | 22 | 11 to 30 | – | – |
| O=C(O)C1CSc2c(-c3cccc(C(F)(F)F)c3)c(Cc3cccc4ccccc34)nc(=O)n21 (centres unmarked) [Compound 022, 7-(naphthalen-1-ylmethyl)-5-oxo-8-(3-(trifluoromethyl)phenyl)-2,3-dihydro-5H-thiazolo[3,2-c]pyrimidine-3-carboxylic acid] | 49 | 31 to 60 | – | – |
| CN(C)Cc1c(Cc2cccc3ccccc23)c(-c2cccc(C(F)(F)F)c2)c2n(c1=O)C(C(=O)O)CS2 (centres unmarked) [Compound 075, 6-((dimethylamino)methyl)-7-(naphthalen-1-ylmethyl)-5-oxo-8-(3-(trifluoromethyl)phenyl)-2,3-dihydro-5H-thiazolo[3,2-a]pyridine-3-carboxylic acid] | 2 | -10 to 10 | – | – |
